Laboratory results as given in patent US9149513B2, “Method and pharmacological composition for the diagnosis and treatment of male sub-fertility” (PERINESS LTD., priority 2006, dated 2015).

System: intracellular sperm cell DNase
Assay: Inhibition of intracellular sperm cell DNase by citrate
Format: cell-based
Conditions: 10 mM citrate, up to 8 hours, activity measured every hour
Protocol: Sperm cells were subjected to three cycles of freezing and thawing and were then centrifuged for 10 min (27,000 g, 4° C.). […] 0.3 ml of the supernatant was added to 0.6 ml of DNase activity buffer and the mixture was measured in a spectrophotometer at 260 nm against a reference that contained only buffer and medium. Calibration curves were made using a commercial bovine DNase I. Sperm cell internal DNase was measured in Kunitz units. One Kunitz unit is defined as the amount of DNase that produces an increase of 1 O.D. per minute at 260 nm in a 1 cm pathlength at pH 5 at 25° C., in a reaction buffer that contains 5 mM MgSO4x7H2O, 0.1 M NaAcetate pH 5 and 4 mg % Calf thymus DNA. Plasma DNase was measured in Bartoov units. One Bartoov unit (BU) is defined as the amount of enzyme that produces a ΔA260 of 0.001 per min in 1 cm pathlength at pH 7.5 at 25° C., in a reaction buffer that contains 0.1M Tris, 10 mM CaCl2, 10 mM MnCl2 and 0.05 mg/ml calf thymus DNA.
In order to examine whether the DNase inhibitor citrate can inhibit intracellular sperm cell DNase, sperm cells were incubated with or without 10 mM citrate for up to 8 hours. The intracellular DNase activity was measured every hour and the sum of the DNase activity was calculated.

## O=C(O)CC(O)(CC(=O)O)C(=O)O [citrate]
  sum of intracellular DNase activity, % of control sperm cells: 43%
